We go through two molecules from PMC8245078, “Development of novel benzofuran-isatin conjugates as potential antiproliferative agents with apoptosis inducing mechanism in Colon cancer” (Journal of Enzyme Inhibition and Medicinal Chemistry, 2021).

Assay in all cases: NCI single dose screening (10 µM)
Common to all, as to assay type: cell-based

One test has as its system CCRF-CEM. The following applies: Homo sapiens, read-out: GI% (cell growth inhibition percentage).
Another test has as its system HL-60(TB). The following applies: Homo sapiens.
For another test, the system named is RPMI-8226. The following applies: Homo sapiens.
The next test deals with SW-620. The following applies: Homo sapiens.
In the next test the test system is HT-29. The following applies: Homo sapiens.
In a further test the test system is KM12. The following applies: Homo sapiens.
The subject of the next test is SF-539. The following applies: Homo sapiens.
Another test relates to SF-268. The following applies: Homo sapiens.
In a further test the test system is SF-295. The following applies: Homo sapiens.
The next test has as its system SNB-19. The following applies: Homo sapiens.
Another test deals with MALME-3M. The following applies: Homo sapiens, read-out: GI% (cell growth inhibition percentage).
The next test deals with UACC-257. The following applies: Homo sapiens.
The test system of another test is UACC-62. The following applies: Homo sapiens.
Another test has as its system SK-MEL-2. The following applies: Homo sapiens.
Another test concerns NCI/ADR-RES. The following applies: Homo sapiens, read-out: GI% (cell growth inhibition percentage).
The test system of the next test is IGROV1. The following applies: Homo sapiens.
Another test concerns OVCAR-3. The following applies: Homo sapiens.
The subject of the next test is OVCAR-8. The following applies: Homo sapiens.
For a further test, the system named is OVCAR-5. The following applies: Homo sapiens.
Another test has as its system UO-31. The following applies: Homo sapiens.
For the next test, the system named is TK-10. The following applies: Homo sapiens.
A further test deals with HS 578 T. The following applies: Homo sapiens, read-out: GI% (cell growth inhibition percentage).
The next test concerns T-47D. The following applies: Homo sapiens, T47D, read-out: GI% (cell growth inhibition percentage).

Usually inhibition stands for the share of the control response that was lost under treatment.

SMILES strings stand for the structures. Read-outs that look alike come from different tables or passages of the source. Some results are limits rather than exact numbers.

Consider `Cc1c(C(=O)N/N=C2\C(=O)N(Cc3ccccc3)c3ccccc32)oc2ccccc12` [Compound 7d], for which the inhibition at 10 µM in the test with CCRF-CEM was below 10%; with HL-60(TB) (HL-60, read-out: GI% (cell growth inhibition percentage)) it was below 10%; in the test on RPMI-8226 (RPMI-8226, read-out: GI% (cell growth inhibition percentage)), below 10%; in the test on SW-620 (SW-620, read-out: GI% (cell growth inhibition percentage)), 11.2%; in the test on HT-29 (HT-29, read-out: GI% (cell growth inhibition percentage)) it was below 10%; in the test on KM12 (KM12, read-out: GI% (cell growth inhibition percentage)) it was below 10%. Moreover, the inhibition at 10 µM in the test with SF-539 (SF-539, read-out: GI% (cell growth inhibition percentage)) was below 10%; with SF-268 (SF-268, read-out: GI% (cell growth inhibition percentage)), below 10%; in the test on SF-295 (SF-295, read-out: GI% (cell growth inhibition percentage)), below 10%; in the test on SNB-19 (SNB-19, read-out: GI% (cell growth inhibition percentage)) it was 11.6%; with MALME-3M (Malme-3M), below 10%; in the test with UACC-257 (UACC-257, read-out: GI% (cell growth inhibition percentage)), below 10%. For the same molecule, the inhibition at 10 µM in the test with UACC-62 (UACC-62, read-out: GI% (cell growth inhibition percentage)) was 20.6%; in the test with SK-MEL-2 (SK-MEL-2, read-out: GI% (cell growth inhibition percentage)), below 10%; in the test with NCI/ADR-RES, 10.2%; in the test on IGROV1 (IGROV-1, read-out: GI% (cell growth inhibition percentage)), 33.6%; in the test on OVCAR-3 (OVCAR-3, read-out: GI% (cell growth inhibition percentage)), below 10%; in the test on OVCAR-8 (OVCAR-8, read-out: GI% (cell growth inhibition percentage)), below 10%. Further, the inhibition at 10 µM is below 10% with OVCAR-5 (OVCAR-5, read-out: GI% (cell growth inhibition percentage)); 33.6% in the test with UO-31 (UO-31, read-out: GI% (cell growth inhibition percentage)); below 10% in the test on TK-10 (TK-10, read-out: GI% (cell growth inhibition percentage)); below 10% in the test with HS 578 T (Hs-578T); 33.3% in the test with T-47D.
Take `Cc1c(C(=O)N/N=C2\C(=O)Nc3ccc(F)cc32)oc2ccccc12` [Compound 5b]: the inhibition at 10 µM in the test on CCRF-CEM (Leukaemia, single dose 10^−5 M) is below 10%; with HL-60(TB) (HL-60(TB), Leukaemia, single dose 10^−5 M, read-out: GI% (cell growth inhibition percentage)), below 10%; in the test on RPMI-8226 (RPMI-8226, Leukaemia, single dose 10^−5 M, read-out: GI% (cell growth inhibition percentage)), below 10%; with SW-620 (SW-620, Colon cancer, single dose 10^−5 M, read-out: GI% (cell growth inhibition percentage)) it was below 10%; in the test on HT-29 (HT-29, Colon cancer, single dose 10^−5 M, read-out: GI% (cell growth inhibition percentage)) it was below 10%; in the test with KM12 (KM12, Colon cancer, single dose 10^−5 M, read-out: GI% (cell growth inhibition percentage)), below 10%. The inhibition at 10 µM in the test with SF-539 (SF-539, CNS cancer, single dose 10^−5 M, read-out: GI% (cell growth inhibition percentage)) is below 10%; in the test on SF-268 (SF-268, CNS cancer, single dose 10^−5 M, read-out: GI% (cell growth inhibition percentage)), below 10%; with SF-295 (SF-295, CNS cancer, single dose 10^−5 M, read-out: GI% (cell growth inhibition percentage)), below 10%; in the test on SNB-19 (SNB-19, CNS cancer, single dose 10^−5 M, read-out: GI% (cell growth inhibition percentage)) it was below 10%; in the test with MALME-3M (MALME-3M, Melanoma, single dose 10^−5 M), 12.4%; in the test on UACC-257 (UACC-257, Melanoma, single dose 10^−5 M, read-out: GI% (cell growth inhibition percentage)), below 10%. In addition, the inhibition at 10 µM in the test with UACC-62 (UACC-62, Melanoma, single dose 10^−5 M, read-out: GI% (cell growth inhibition percentage)) is 10.9%; in the test with SK-MEL-2 (SK-MEL-2, Melanoma, single dose 10^−5 M, read-out: GI% (cell growth inhibition percentage)), below 10%; in the test with NCI/ADR-RES (Ovarian cancer, single dose 10^−5 M), below 10%; with IGROV1 (IGROV-1, IGROV1, Ovarian cancer, single dose 10^−5 M, read-out: GI% (cell growth inhibition percentage)) it was 33.7%; in the test on OVCAR-3 (OVCAR-3, Ovarian cancer, single dose 10^−5 M, read-out: GI% (cell growth inhibition percentage)), below 10%; in the test with OVCAR-8 (OVCAR-8, Ovarian cancer, single dose 10^−5 M, read-out: GI% (cell growth inhibition percentage)), below 10%. Also, the inhibition at 10 µM in the test on OVCAR-5 (OVCAR-5, Ovarian cancer, single dose 10^−5 M, read-out: GI% (cell growth inhibition percentage)) is below 10%; in the test on UO-31 (UO-31, Renal cancer, single dose 10^−5 M, read-out: GI% (cell growth inhibition percentage)), 26.7%; in the test with TK-10 (TK-10, Renal cancer, single dose 10^−5 M, read-out: GI% (cell growth inhibition percentage)), below 10%; with HS 578 T (HS 578 T, Breast cancer, single dose 10^−5 M), below 10%; in the test on T-47D (T-47D, Breast cancer, single dose 10^−5 M), below 10%.
